# Data published in ChEMBL document CHEMBL2429799, “Systematic replacement of amides by 1,4-disubstituted[1,2,3]triazoles in Leu-enkephalin and the impact on the delta opioid receptor activity” (Bioorg Med Chem Lett, 2013).
# Activity calls are given as the source filed them. The calls are words filed in the database; no cut-off is given here.
# Tests used:
# [1] = target: Delta-type opioid receptor (Mus musculus, UniProt P32300); experiment: Agonist activity at delta opioid receptor in mouse vas deferens assessed as inhibition of electrically-stimulated muscle contraction
# Delta-type opioid receptor (Mus musculus, UniProt P32300), sequence (P32300 whole entry): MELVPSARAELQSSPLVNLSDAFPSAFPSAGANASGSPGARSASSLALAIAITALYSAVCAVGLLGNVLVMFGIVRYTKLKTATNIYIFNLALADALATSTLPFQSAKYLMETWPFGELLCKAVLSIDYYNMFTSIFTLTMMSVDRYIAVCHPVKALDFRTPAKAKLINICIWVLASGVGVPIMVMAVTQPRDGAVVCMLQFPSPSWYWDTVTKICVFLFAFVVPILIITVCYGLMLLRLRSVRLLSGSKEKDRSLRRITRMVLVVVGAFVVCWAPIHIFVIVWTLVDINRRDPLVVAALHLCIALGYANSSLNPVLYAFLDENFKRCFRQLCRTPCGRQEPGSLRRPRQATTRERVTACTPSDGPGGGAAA
# [2] = target: Delta-type opioid receptor (Rattus norvegicus, UniProt P33533); experiment: Displacement of [3H]-deltorphin 2 from delta opioid receptor in rat GH3 cells after 60 mins by scintillation counting analysis; assay type: cell-based
# Delta-type opioid receptor (Rattus norvegicus, UniProt P33533), sequence (P33533 whole entry): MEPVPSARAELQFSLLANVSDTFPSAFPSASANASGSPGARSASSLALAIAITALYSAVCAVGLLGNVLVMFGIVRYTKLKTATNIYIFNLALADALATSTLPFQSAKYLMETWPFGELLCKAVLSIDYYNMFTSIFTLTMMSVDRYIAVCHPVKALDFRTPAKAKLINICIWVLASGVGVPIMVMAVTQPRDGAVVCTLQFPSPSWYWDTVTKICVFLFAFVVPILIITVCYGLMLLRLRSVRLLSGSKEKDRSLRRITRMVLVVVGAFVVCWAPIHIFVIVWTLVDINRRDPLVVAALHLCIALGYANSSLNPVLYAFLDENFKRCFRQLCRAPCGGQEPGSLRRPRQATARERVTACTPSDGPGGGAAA
# [3] = Agonist activity at delta opioid receptor in mouse/rat DRGF11 hybrid cells expressing GFP assessed as induction of ERK1/2 phosphorylation at 10^-9 to 10^-5 M after 5 mins by Western blotting analysis
SMILES,EC50 [1] [nM],Ki [2] [nM],Activity [3]
CC(C)C[C@H](NC(=O)[C@H](Cc1ccccc1)NC(=O)Cn1cc(CNC(=O)[C@@H](N)Cc2ccc(O)cc2)nn1)C(=O)O,> 1500,> 1000,–
CC(C)C[C@@H](C(=O)O)n1cc([C@H](Cc2ccccc2)NC(=O)CNC(=O)CNC(=O)[C@@H](N)Cc2ccc(O)cc2)nn1,830,89,Active
CC(C)C[C@H](NC(=O)[C@H](Cc1ccccc1)NC(=O)CNC(=O)Cn1cc([C@@H](N)Cc2ccc(O)cc2)nn1)C(=O)O,> 1500,> 1000,–
CC(C)C[C@H](NC(=O)[C@H](Cc1ccccc1)n1cc(CNC(=O)CNC(=O)[C@@H](N)Cc2ccc(O)cc2)nn1)C(=O)O,> 1500,460,–
